The values that follow come from patent US12011445B2, “Prevention of pancreatic cell degeneration” (Melior Pharmaceuticals I, Inc., priority 2010, dated 2024).

For one series, the system named is leptin. Description: Leptin levels in Western diet treated animals (ELISA). Particulars: animals fed a western diet. In kind it is in vivo, mice. How it is done: Blood from mice that were on western diet (Compound 102) were analyzed for leptin levels. Mice were bled by retroorbital eyebleed on days 7, 14, 21 and 28 after the initiation of the study. On day of REB mice were dosed once with full dose 1 hr prior to bleed. Leptin levels were determined by ELISA (R&D Systems) as per directions. Data are expressed as the average±SEM. Data were averaged and analyzed by ANOVA followed by a post-hoc Tukey's test with a p value of less then 0.05 indicating a statistical difference.
(In general: ELISA stands for enzyme-linked immunosorbent assay.)

A further series concerns Zucker rats. Description: In vivo Zucker rat study (oral glucose challenge). Particulars: 30 mg/kg ip; glucose 1.5 g/kg; 30 and 270 minutes after administration. How it is done: Zucker rats and corresponding lean rats were supplied by Harlan. Rats were fed a normal diet, ad libitum, and kept on a 12 hr light/dark cycle. Rats were housed 3 per cage. At 12 weeks of age, Zucker rats were administered Compound 102 at a concentration of 30 mg/kg (ip). Blood glucose levels were measured 30 minutes after administration. Forty-five minutes after drug administration, animals were administered a glucose solution (1.5 g/kg) by oral gavage. Blood glucose levels were measured every 30 minutes after gavage for 4.5 hrs. There were 3 groups with 3 animals per group: 1) 3 Zucker leans (no drug; no glucose treatment); 2) Zucker vehicle treated group (glucose challenged and 3) Zucker Compound 102 treatment (30 mg/kg); glucose challenged.

The subject of a further series is pancreatic β-cells. Description: Pancreatic β-cell degeneration in db/db mice (insulin antibody staining of pancreas). It is filed as in vivo. How it is done:
Db/db mice were administered Compound 102 (100 mg/kg) for 60 days. At the end of the treatment period, pancreases were removed, post-fixed, sectioned and stained with insulin antibody to visualize pancreatic β-cells. Vehicle treated db/db mice expressed dramatically less insulin staining than lean control mice.

Series [1] in a line: Western Diet study (weight, food intake, fat pads). In kind it is in vivo, Male CD1/ICR mice. From the text:
Male CD1/ICR mice were obtained from Harlan. The study was started when mice were 8 weeks of age. Prior to initiation of the study mice fasted for 24 hrs. Mice were fed “Western Diet” that was designed to approximate the “typical” human diet of North America and Europe (Research Diets; New Brunswick, N.J.; Western Diet composition). The Western Diet contained greater then 5 times more fat then normal chow. [table] Mice were weighed daily beginning from the start of the 24 hr fasting period. Food intake was monitored continuously. Mice were bled by retroorbital eyebleed on days 7, 14, 21 and 28 after the initiation of the study. On day of REB mice were dosed 1× with full dose 1 hr prior to bleed. Fat pads were dissected at the end of the study (day 31) weighed and frozen. The following fat pads were dissected: brown, inguinal, axial, mesenteric, renal and epidydimal. Data were averaged and analyzed by ANOVA followed by a post-hoc Tukey's test with a p value of less then 0.05 indicating a statistical difference.

The nature of series [2]: Oral glucose tolerance test. In kind it is in vivo, mice. Particulars: for blood glucose levels at all time points after administration: P<0.05. How it is done:
Glucose was formulated in water at a concentration of 150 mg/ml and dosed at a volume of 10 ml/kg to produce a dose of 1.5 g/kg. Glucose was measured using the Ascensia II Elite XL glucose monitor ([…]). Measure glucose by taking a small (2 mm) section off the tip of the tail, bleed onto glucose test strip and measure. Data for each time point analyzed by ANOVA and post-hoc Tukey's test. A p value of less then 0.05 was used to indicate statistical significance. […]
In study 1, mice were dosed with Compound 102 and glucose as follows:
In study 2, mice were dosed with Compound 102 and glucose as follows.
Study 3 tested Compound 102 and was conducted as follows: […]

The subject of series [3] is Db/Db mice. Description: In vivo Db/Db mouse study. As to conditions: for acute blood glucose response: upon study initiation and on weekly blood glucose testing. How it is done:
Db/Db and Db/lean mice were obtained from Harlan at 6 weeks of age. Mice were housed 3 per cage and fed ad libitum normal rodent chow. Mice were kept on a 12 hr Light:dark cycle.
The study was initiated when mice reached an age of 8 weeks and their baseline blood glucose levels were greater than 200 mg/dl. Compound 102 was formulated in PBS: 2N HCl (99:1) at concentrations of 0.5, 1.5 and 5 mg/ml. Mice were dosed at volumes of 10 ml/kg to produce doses of 5, 15 and 50 mg/kg/dose. Mice were dosed twice per day at an 8 hr interval (8 am and 4 pm) during the light cycle.
For the acute blood glucose measurements, blood glucose levels were measured after the animals received their first dose of Compound 102. Blood glucose levels were measured two hours after this initial injection.
Mice were administered vehicle or drug (i.e., Compound 102) (5, 15, and 50 mg/kg) twice per day (bid) for the 28 days. Mouse weight and food intake were monitored daily. Food intake is reported as food intake (grams) per mouse per 24 hr period.

Series [4] has as its system Db/Db mice. Description: Blood glucose and serum insulin levels in db/db mice, 56 days. It is filed as in vivo. How it is done: Blood glucose levels were measured once per week and serum insulin levels measured at the beginning and at the end of the study.
[5] abbreviates: chronic treatment, histology, vs untreated controls, FIG. 2.
The mark [6] stands for this setting: Western diet, fat pads dissected day 31.
[7] abbreviates: study 1, single administration, 30 mg/kg.
[8] abbreviates: IP, twice/day, four weeks, 5, 15 and 50 mg/kg.

SMILES strings stand for the structures. “Also recorded” adds a separate entry of the source.

Regarding `Cc1cccc(Oc2cnc(=O)[nH]c2)c1` [Compound 102], the blood leptin levels entry in the series on leptin is recorded as “reduced leptin levels to those fed a normal diet”. In addition, the “blood glucose levels after oral glucose administration” value with Zucker rats is listed as “reduced blood glucose levels at both time points”. Besides, the “insulin staining of pancreas sections” value in the series on pancreatic β-cells (100 mg/kg for 60 days) is “significantly higher levels of insulin staining than vehicle treated mice”. In the series on pancreatic β-cells (setting [5]), the islet insulin content entry is recorded as “increased insulin content” and the islet structure result is on record as “better preserved islet structure”. For the same compound, the “pancreatic β-cell degeneration” value in the series on pancreatic β-cells (db/db mice, FIG. 2) is listed as “prevents β-cell degeneration; also recorded: prevention of pancreatic β-cell degeneration”. In series [1] (Western / high fat diet fed mice), the food intake result is listed as “not affected; also recorded: independent of an effect on food intake; also recorded: normal food intake”. For the same compound, in series [1] (setting [6]), the “brown, axial, inguinal, renal and epipdydimal fat pad increases” value is “significantly reduced”; the “mesenteric fat pad levels” value is “not”. For the same compound, the weight gain entry in series [1] (Western diet, highest dose tested (30 mg/kg/day), absolute weight and weight change from day 0) was “significantly reduced”. Besides, the defecation result in series [1] (chronic administration, high fat diet) was “defecated normally”. The “hyperactivity normally associated with the amphetamine class of weight-loss drugs” value in series [1] (mouse, in vivo) was “did not display the hyperactivity”. The “animals fed a western diet and treated, compared with normal diet (weight gain, food intake, fat pad development, leptin)” value in series [1] (summary of Examples 2 and 3) is given as “do not look different from those fed a normal diet”. Further, the “weight change / weight-gain response” value in series [1] (western (high fat) diet fed animals, chronic administration, dose not stated) is on record as “significant alteration; also recorded: significantly inhibited”. In series [1] (western diet fed animals), the fat pad development entry was “reduction in fat pad development”. In series [2] (setting [7]), the “blood glucose levels produced by oral glucose administration” value was “significantly attenuated”, the “normal blood glucose levels (pre-glucose loading)” value is on record as “significantly decreased” and the “time after drug administration at which significance was lost” value is 90 min. Also, in series [2] (study 2, increased dosing), the “effect on blood glucose levels” value is given as “more dramatic effect”. For the same compound, the “acute blood glucose response” value with Db/Db mice [3] (15 mg/kg dose group) is given as “acute dose response”. Moreover, the “acute blood glucose response” value in the series on Db/Db mice [3] (50 mg/kg dose group) is “acute dose response”. Moreover, in the series with Db/Db mice [3] (setting [8]), the “effect on animal weight gain” value is reported as “dose dependent effect” and the “effect on blood glucose levels” value was “dose dependent effect”. For the same compound, the “blood glucose levels following acute administration” value in the series on Db/Db mice [3] (measured two hours after first dose) is given as “reduce blood glucose levels”. Besides, the serum insulin levels result in the series with Db/Db mice [4] (30 mg/kg daily for 56 days, beginning vs end of study, FIG. 1) was “significantly slowed the loss; also recorded: prevention of the loss of serum insulin levels”. Besides, the blood glucose levels entry with Db/Db mice [4] (30 mg/kg daily for 56 days, measured once per week, FIG. 1) was “attenuated the progressive rise; also recorded: decrease in blood glucose”. In the series on Db/Db mice [4] (db/db mice, compared among Compound 102, vehicle and rosiglitazone), the “extent of serum insulin lowering associated with pancreatic β-cell loss” value is reported as “do not exhibit the extent of serum insulin lowering”.

For `O=c1ncc(Oc2cccc(Cl)c2)c[nH]1` [Compound 105], the “baseline blood glucose levels” value in series [2] (data not shown) is recorded as “significantly depressed”. Also, the blood glucose levels result in series [2] (oral glucose tolerance test, overall statement) is recorded as “dramatic reductions”. Besides, the “blood glucose levels at all time points after administration” value in series [2] (single dose 2 mg/kg) and in series [2] (single dose 10 mg/kg) was “significantly (P<0.05) reduced” in each case.
